Measured values: patent US20250206732A1, “COMPOUNDS AND METHODS FOR THE TARGETED DEGRADATION OF KRAS” (Arvinas Operations, Inc., priority 2022, published 2025)

Molecular target: T1, AsPC-1 HiBiT-KRASG12D (Homo sapiens, UniProt P01116, G12D)
T1 construct: insert the HiBiT tag onto the N-terminus of one or more of the endogenous KRAS alleles; endogenous in cells; host or cells: AsPC-1 (ATCC CRL-1682), CRISPR-Cas9 knock-in clone, one tagged allele
Assay: HiBiT degradation assay (G12D), AsPC-1 HiBiT-KRASG12D cells
Assay type: cell-based
Settings: 24 hours treatment; for Dmax: ASPC1, AsPC-1 HiBiT-KRASG12D cells, maximum degradation observed; for DC50: AsPC-1 HiBiT-KRASG12D cells, HiBiT luminescence
Summary of the method: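 Endogenous KRASG12D levels were measured via an N-terminal HiBiT tag knocked into AsPC-1 cells. Cells received compound titrations for 24 hours, and HiBiT luminescence was detected after a 45-minute lytic reagent incubation at room temperature.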

T1 sequence (P01116 1-188 isoform P01116-2 G12D): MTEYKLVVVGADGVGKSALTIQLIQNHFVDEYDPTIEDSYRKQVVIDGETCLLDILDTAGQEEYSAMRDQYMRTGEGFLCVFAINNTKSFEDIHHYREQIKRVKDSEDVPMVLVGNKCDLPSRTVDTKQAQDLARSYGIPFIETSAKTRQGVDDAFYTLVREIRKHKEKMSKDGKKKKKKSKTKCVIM

Structure (SMILES) | Dmax | DC50
CCc1cccc2cc(O)cc(-c3ncc4c(N5CC6CCC(C5)N6)nc(OCCN5CCC6(CC5)CC(Oc5cc([C@@H](C(=O)N7C[C@H](O)C[C@H]7C(=O)N[C@@H](C)c7ccc(-c8scnc8C)cc7)C(C)C)on5)C6)nc4c3F)c12 [Compound 232] | 20 to 60% | 1000 to 3000 nM
CCc1cccc2cncc(-c3ncc4c(N5CC6CCC(C5)N6)nc(OCCN5CCC(COc6cc([C@H](C(=O)N7C[C@H](O)C[C@H]7C(=O)N[C@@H](C)c7ccc(-c8scnc8C)cc7)C(C)C)on6)CC5)nc4c3F)c12 [Compound 304] | – | > 3000 nM
CCc1cccc2cc(O)cc(-c3ncc4c(N5CC6CCC(C5)N6)nc(OC[C@]56CCCN5C[C@H](Oc5cc([C@@H](C(=O)N7C[C@H](O)C[C@H]7C(=O)N[C@@H](C)c7ccc(-c8scnc8C)cc7)C(C)C)on5)CC6)nc4c3F)c12 [Compound 319, (2S,4R)-1-[(2S)-2-[3-[[(6R,8aR)-8a-[[4-(3,8-diazabicyclo[3.2.1]octan-3-yl)-7-(8-ethyl-3-hydroxy-1-naphthyl)-8-fluoro-pyrido[4,3-d]pyrimidin-2-yl]oxymethyl]-2,3,5,6,7,8-hexahydro-1H-indolizin-6-yl]oxy]isoxazol-5-yl]-3-methyl-butanoyl]-4-hydroxy-N-[(1S)-1-[4-(4-methylthiazol-5-yl)phenyl]ethyl]pyrrolidine-2-carboxamide] | 60 to 80% | 1000 to 3000 nM
CCc1cccc2cc(O)cc(-c3ncc4c(N5CC6CCC(C5)N6)nc(OC[C@@H]5CC[C@@H](COC(=O)N6CCN(c7cc([C@H](C(=O)N8C[C@H](O)C[C@H]8C(=O)N[C@@H](C)c8ccc(-c9scnc9C)cc8)C(C)C)on7)C[C@@H]6C)N5C)nc4c3F)c12 [Compound 261, [(2S,5S)-5-{[(4-{3,8-diazabicyclo[3.2.1]octan-3-yl}-7-(8-ethyl-3-hydroxynaphthalen-1-yl)-8-fluoropyrido[4,3-d]pyrimidin-2-yl)oxy]methyl}-1-methylpyrrolidin-2-yl]methyl (2S)-4-{5-[(2R)-1-[(2S,4R)-4-hydroxy-2-{[(1S)-1-[4-(4-methyl-1,3-thiazol-5-yl)phenyl]ethyl]carbamoyl}pyrrolidin-1-yl]-3-methyl-1-oxobutan-2-yl]-1,2-oxazol-3-yl}-2-methylpiperazine-1-carboxylate] | 80 to 100% | < 600 nM
CCc1cccc2cccc(-c3ncc4c(N5CC6CCC(C5)N6)nc(OC[C@@]56CCCN5[C@H](COc5cc([C@H](C(=O)N7C[C@H](O)C[C@H]7C(=O)N[C@@H](C)c7ccc(-c8scnc8C)cc7)C(C)C)on5)CC6)nc4c3F)c12 [Compound 54, (2S,4R)-1-[(2R)-2-(3-{[(3S,7aS)-7a-{[(4-{3,8-diazabicyclo[3.2.1]octan-3-yl}-7-(8-ethylnaphthalen-1-yl)-8-fluoropyrido[4,3-d]pyrimidin-2-yl)oxy]methyl}-hexahydro-1H-pyrrolizin-3-yl]methoxy}-1,2-oxazol-5-yl)-3-methylbutanoyl]-4-hydroxy-N-[(1S)-1-[4-(4-methyl-1,3-thiazol-5-yl)phenyl]ethyl]pyrrolidine-2-carboxamide] | 80 to 100% | < 600 nM
CCc1cccc2cc(O)cc(-c3ncc4c(N5CC6CCC(C5)N6)nc(OC[C@]56CCCN5[C@H](COC(=O)N5CCN(c7cc(C(C(=O)N8C[C@H](O)C[C@H]8C(=O)N[C@@H](C)c8ccc(-c9scnc9C)cc8)C(C)C)on7)CC5)CC6)nc4c3F)c12 (single isomer, unassigned) [Compound 109, [(3S,7aR)-7a-{[(4-{3,8-diazabicyclo[3.2.1]octan-3-yl}-7-(8-ethyl-3-hydroxynaphthalen-1-yl)-8-fluoropyrido[4,3-d]pyrimidin-2-yl)oxy]methyl}-hexahydro-1H-pyrrolizin-3-yl]methyl 4-{5-[(2R*)-1-[(2S,4R)-4-hydroxy-2-{[(1S)-1-[4-(4-methyl-1,3-thiazol-5-yl)phenyl]ethyl]carbamoyl}pyrrolidin-1-yl]-3-methyl-1-oxobutan-2-yl]-1,2-oxazol-3-yl}piperazine-1-carboxylate] | 80 to 100% | < 600 nM
CCc1cccc2cc(O)cc(-c3ncc4c(N5CC6CCC(C5)N6)nc(OC[C@@]56CCCN5[C@H](COC(=O)N5CC(Oc7cc([C@H](C(=O)N8C[C@H](O)C[C@H]8C(=O)N[C@@H](C)c8ccc(-c9scnc9C)cc8)C(C)C)on7)C5)CC6)nc4c3F)c12 [Compound 126, [(3S,7aS)-7a-{[(4-{3,8-diazabicyclo[3.2.1]octan-3-yl}-7-(8-ethyl-3-hydroxynaphthalen-1-yl)-8-fluoropyrido[4,3-d]pyrimidin-2-yl)oxy]methyl}-hexahydro-1H-pyrrolizin-3-yl]methyl 3-({5-[(2R)-1-[(2S,4R)-4-hydroxy-2-{[(1S)-1-[4-(4-methyl-1,3-thiazol-5-yl)phenyl]ethyl]carbamoyl}pyrrolidin-1-yl]-3-methyl-1-oxobutan-2-yl]-1,2-oxazol-3-yl}oxy)azetidine-1-carboxylate] | 80 to 100% | < 600 nM
C#Cc1c(F)ccc2cc(O)cc(-c3ncc4c(N5CC6CCC(C5)N6)nc(OCCN5CCC(C6CN(c7cc([C@H](C(=O)N8C[C@H](O)C[C@H]8C(=O)N[C@@H](C)c8ccc(-c9scnc9C)cc8)C(C)C)on7)C6)CC5)nc4c3F)c12 [Compound 185] | 80 to 100% | < 600 nM
CCc1cccc2cc(O)cc(-c3ncc4c(N5CC6CCC(C5)N6)nc(OCCN5CC[C@@H]6CN(c7cc([C@H](C(=O)N8C[C@H](O)C[C@H]8C(=O)N[C@@H](C)c8ccc(-c9scnc9C)cc8)C(C)C)on7)C[C@@H]6C5)nc4c3F)c12 (relative stereo) [Compound 71, (2S,4R)-1-[(2R*)-2-{3-[(3aR**,7aR***)-5-{2-[(4-{3,8-diazabicyclo[3.2.1]octan-3-yl}-7-(8-ethyl-3-hydroxynaphthalen-1-yl)-8-fluoropyrido[4,3-d]pyrimidin-2-yl)oxy]ethyl}-octahydro-1H-pyrrolo[3,4-c]pyridin-2-yl]-1,2-oxazol-5-yl}-3-methylbutanoyl]-4-hydroxy-N-[(1S)-1-[4-(4-methyl-1,3-thiazol-5-yl)phenyl]ethyl]pyrrolidine-2-carboxamide] | 80 to 100% | < 600 nM
C#Cc1c(F)ccc2cc(O)cc(-c3ncc4c(N5CC6CCC(C5)N6)nc(OCCN5CCC(CN6CCN(c7cnc(C(=O)N[C@H](C(=O)N8C[C@H](O)C[C@H]8C(=O)N[C@@H](C)c8ccc(-c9scnc9C)cc8)C(C)(C)C)cn7)CC6)CC5)nc4c3F)c12 [Compound 179, 5-{4-[(1-{2-[(4-{3,8-diazabicyclo[3.2.1]octan-3-yl}-7-(8-ethynyl-7-fluoro-3-hydroxynaphthalen-1-yl)-8-fluoropyrido[4,3-d]pyrimidin-2-yl)oxy]ethyl}piperidin-4-yl)methyl]piperazin-1-yl}-N-[(2S)-1-[(2S,4R)-4-hydroxy-2-{[(1S)-1-[4-(4-methyl-1,3-thiazol-5-yl)phenyl]ethyl]carbamoyl}pyrrolidin-1-yl]-3,3-dimethyl-1-oxobutan-2-yl]pyrazine-2-carboxamide] | 80 to 100% | < 600 nM
C#Cc1c(F)ccc2cc(O)cc(-c3ncc4c(N5CC6CCC(C5)N6)nc(OCCN5CCC(CCOc6cc([C@H](C(=O)N7C[C@H](O)C[C@H]7C(=O)N[C@@H](C)c7ccc(-c8scnc8C)cc7)C(C)C)on6)CC5)nc4c3F)c12 [Compound 173, (2S,4R)-1-[(2R)-2-{3-[2-(1-{2-[(4-{3,8-diazabicyclo[3.2.1]octan-3-yl}-7-(8-ethynyl-7-fluoro-3-hydroxynaphthalen-1-yl)-8-fluoropyrido[4,3-d]pyrimidin-2-yl)oxy]ethyl}piperidin-4-yl)ethoxy]-1,2-oxazol-5-yl}-3-methylbutanoyl]-4-hydroxy-N-[(1S)-1-[4-(4-methyl-1,3-thiazol-5-yl)phenyl]ethyl]pyrrolidine-2-carboxamide] | 80 to 100% | < 600 nM
CCc1cccc2cc(O)cc(-c3ncc4c(N5CC6CCC(C5)N6)nc(OC[C@]56CCCN5[C@H](COC(=O)N5C[C@H](C)N(c7cc([C@@H](C(=O)N8C[C@H](O)C[C@H]8C(=O)N[C@@H](C)c8ccc(-c9scnc9C)cc8)C(C)C)on7)C[C@H]5C)CC6)nc4c3F)c12 [Compound 302, [(3S,8R)-8-[[4-(3,8-diazabicyclo[3.2.1]octan-3-yl)-7-(8-ethyl-3-hydroxy-1-naphthyl)-8-fluoro-pyrido[4,3-d]pyrimidin-2-yl]oxymethyl]-1,2,3,5,6,7-hexahydropyrrolizin-3-yl]methyl (2R,5S)-4-[5-[(1S)-1-[(2S,4R)-4-hydroxy-2-[[(1S)-1-[4-(4-methylthiazol-5-yl)phenyl]ethyl]carbamoyl]pyrrolidine-1-carbonyl]-2-methyl-propyl]isoxazol-3-yl]-2,5-dimethyl-piperazine-1-carboxylate] | 20 to 60% | 1000 to 3000 nM
CCc1cccc2cc(O)cc(-c3ccc4c(N5CC6CCC(C5)N6)nc(OC[C@]56CCCN5[C@H](COC(=O)N5CCN(c7cc(C(C(=O)N8C[C@H](O)C[C@H]8C(=O)N[C@@H](C)c8ccc(-c9scnc9C)cc8)C(C)C)on7)CC5)CC6)nc4c3F)c12 (single isomer, unassigned) [Compound 267] | 80 to 100% | < 600 nM
CCc1cccc2cc(O)cc(-c3ncc4c(N5CC6CCC(C5)N6)nc(OC[C@]56CCCN5[C@@H](COC(=O)N(C)Cc5cc([C@H](C(=O)N7C[C@H](O)C[C@H]7C(=O)N[C@@H](C)c7ccc(-c8scnc8C)cc7)C(C)C)on5)CC6)nc4c3F)c12 [Compound 92, [(3R,7aR)-7a-{[(4-{3,8-diazabicyclo[3.2.1]octan-3-yl}-7-(8-ethyl-3-hydroxynaphthalen-1-yl)-8-fluoropyrido[4,3-d]pyrimidin-2-yl)oxy]methyl}-hexahydro-1H-pyrrolizin-3-yl]methyl N-({5-[(2R)-1-[(2S,4R)-4-hydroxy-2-{[(1S)-1-[4-(4-methyl-1,3-thiazol-5-yl)phenyl]ethyl]carbamoyl}pyrrolidin-1-yl]-3-methyl-1-oxobutan-2-yl]-1,2-oxazol-3-yl}methyl)-N-methylcarbamate] | 80 to 100% | < 600 nM
